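Grown in 96-well plates, cells were treated for 48 hours with each compound at five concentrations. Insufficient inhibition: endpoint recorded as highest concentration tested. GI50 marks 50% less growth. Definition used: TGI = concentration required for complete inhibition of growth.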
Experiments:
Assay in all cases: DTP human tumour cell line panel, 48 h
IGROV1 ovarian = tested on: IGROV1 ovarian
SK-MEL-5 melanoma = tested on: SK-MEL-5 melanoma
NCI-H23 lung = tested on: NCI-H23 lung
KM12 colon = tested on: KM12 colon
SN12C renal = tested on: SN12C renal
OVCAR-3 ovarian = tested on: OVCAR-3 ovarian
RPMI-8226 leukemia = tested on: RPMI-8226 leukemia
EKVX NSCLC = tested on: EKVX NSCLC
SF-268 CNS = tested on: SF-268 CNS
COLO 205 colon = tested on: COLO 205 colon

O=C(Nc1ccc(I)cc1C(=O)NCCO)c1cccs1
TGI (IGROV1 ovarian): > 100 µM | TGI (SK-MEL-5 melanoma): > 100 µM | TGI (NCI-H23 lung): > 100 µM | TGI (KM12 colon): > 100 µM | TGI (SN12C renal): > 100 µM | TGI (OVCAR-3 ovarian): > 100 µM | TGI (RPMI-8226 leukemia): > 100 µM | TGI (EKVX NSCLC): > 100 µM | TGI (SF-268 CNS): > 100 µM | TGI (COLO 205 colon): > 100 µM

CCC(=O)C(c1ccccc1)c1ccccn1 (stereo unspecified)
TGI (IGROV1 ovarian): > 100 µM | TGI (SK-MEL-5 melanoma): > 100 µM | TGI (NCI-H23 lung): > 100 µM | TGI (KM12 colon): > 100 µM | TGI (SN12C renal): > 100 µM | TGI (OVCAR-3 ovarian): > 100 µM | TGI (RPMI-8226 leukemia): > 100 µM | TGI (EKVX NSCLC): > 100 µM | TGI (SF-268 CNS): > 100 µM | TGI (COLO 205 colon): > 100 µM

CSC1=Nc2ccccc2N(C)c2c1c(-c1ccccc1)nn2C
TGI (IGROV1 ovarian): > 100 µM | TGI (SK-MEL-5 melanoma): 43.4 µM | TGI (NCI-H23 lung): > 100 µM | TGI (KM12 colon): > 100 µM | TGI (SN12C renal): > 100 µM | TGI (OVCAR-3 ovarian): > 100 µM | TGI (RPMI-8226 leukemia): 37.1 µM | TGI (EKVX NSCLC): > 100 µM | TGI (SF-268 CNS): > 100 µM | TGI (COLO 205 colon): > 100 µM

Cc1[nH]c(/C=C2\C(=O)Nc3ccc(S(=O)(=O)Cc4c(Cl)cccc4Cl)cc32)c(C)c1C(=O)N1CCC[C@@H]1CN1CCCC1
GI50 (IGROV1 ovarian): 3.09 µM | TGI (IGROV1 ovarian): 7.98 µM | GI50 (SK-MEL-5 melanoma): 2.58 µM | TGI (SK-MEL-5 melanoma): 15.8 µM | GI50 (NCI-H23 lung): 4.38 µM | TGI (NCI-H23 lung): 12.3 µM | GI50 (KM12 colon): 0.138 µM | TGI (KM12 colon): 4.77 µM | GI50 (SN12C renal): 1.24 µM | TGI (SN12C renal): 2.57 µM | GI50 (OVCAR-3 ovarian): 16 µM | TGI (OVCAR-3 ovarian): 47.4 µM | GI50 (SF-268 CNS): 1.6 µM | TGI (SF-268 CNS): 4.03 µM | GI50 (COLO 205 colon): 9.15 µM | TGI (COLO 205 colon): 22.6 µM

O=C1CC(=O)N(c2ccccc2)N1/C(=C/c1ccccc1)c1ccccc1
TGI (IGROV1 ovarian): 43.9 µM | TGI (SK-MEL-5 melanoma): 28.2 µM | TGI (NCI-H23 lung): 65.4 µM | TGI (KM12 colon): 66.5 µM | TGI (SN12C renal): 44.8 µM | TGI (OVCAR-3 ovarian): 57.1 µM | TGI (RPMI-8226 leukemia): 34.5 µM | TGI (EKVX NSCLC): > 100 µM | TGI (SF-268 CNS): 36.3 µM | TGI (COLO 205 colon): 36.6 µM

CCn1cc(C(c2ccc(Cl)cc2)n2ccnc2)c2cc(Br)ccc21 (stereo unspecified)
TGI (IGROV1 ovarian): 24.8 µM | TGI (SK-MEL-5 melanoma): 31.2 µM | TGI (NCI-H23 lung): 31.1 µM | TGI (KM12 colon): 24.3 µM | TGI (SN12C renal): > 100 µM | TGI (OVCAR-3 ovarian): 22.2 µM | TGI (RPMI-8226 leukemia): 75 µM | TGI (EKVX NSCLC): > 100 µM | TGI (SF-268 CNS): 27.4 µM | TGI (COLO 205 colon): 35.1 µM

OCC1CCCC(n2cnc3c(=S)nc[nH]c32)O1 (stereo unspecified)
TGI (IGROV1 ovarian): > 100 µM | TGI (SK-MEL-5 melanoma): > 100 µM | TGI (NCI-H23 lung): > 100 µM | TGI (KM12 colon): > 100 µM | TGI (SN12C renal): > 100 µM | TGI (OVCAR-3 ovarian): > 100 µM | TGI (RPMI-8226 leukemia): > 100 µM | TGI (EKVX NSCLC): > 100 µM | TGI (SF-268 CNS): > 100 µM | TGI (COLO 205 colon): > 100 µM

From PubChem BioAssay (NCI)
